The values below come from US7595336B2, “Isatine derivatives with neurotrophic activity” (Neurosearch A/S, priority 2002, dated 2009).

Experiment [1] has as its system dopaminergic neurons from rat E14 ventral mesencephali. The settings on record: 1 μM; E14 rat VM; 7 days in culture.
Protocol: Embryonic rat brains (Wistar; E14) were isolated under sterile conditions placed in chilled Gey's balanced salt solution (GIBCO) with glucose (6.5 mg/ml).
The ventral mesencephali were dissected out, cut into small tissue pieces, placed in Neurobasal medium with B27 supplement and gently pressed through a 80 μm Nitex filter. The cells were counted using a hemocytometer and plated in a 6 well multi-dish at a density of approximately 2.0×10^6 cells/well. Culture dishes were pre-coated with poly-D-lysine.
After 1 hour, the medium was removed and fresh medium added (1.5 ml/well). […] Untreated cultures served as controls. The medium was changed every other day and antimitotics and antibiotics were not used at any stage.
After 7 days in culture, cultures were then immunostained for tyrosine hydroxylase (TH). Briefly, the cells were washed in 0.05M tris-buffered saline (TBS, pH 7.4) containing 1% Triton X-100 for 3×15 minutes and incubated with 10% foetal bovine serum (FBS, Life Technologies) in TBS for 30 minutes. The cells were then incubated for 24 hours at 4° C. with monoclonal mouse anti-TH antibody (Boehringer Mannheim) diluted 1:600 in TBS with 10% FBS. After rinsing in TBS with 1% Triton X-100 for 3×15 minutes, cells were incubated for 60 minutes with biotinylated anti-mouse IgG antibody (Amersham) diluted 1:200 in TBS with 10% FBS. […] TH-immunoreactive (ir) cells were counted manually.
For experiment [2], the system named is dopaminergic neurons from pig E28 ventral mesencephali. The following applies: 1 μM; E28 pig VM slice cultures; 21 days in vitro.
Protocol: Ventral mesencephali (VM) were isolated from porcine embryos (E28) under sterile conditions, chopped into 400 μm slices and placed in chilled Gey's balanced salt solution (GIBCO) with glucose (6.5 mg/ml).
In brief, slices were placed on semiporous membranes (Millipore, 0.3 μm; 4 slices/membrane) placed as inserts in 6-well plates (Costar) with serum containing medium (Gibco BRL). Each well contained 1 ml medium (50% Optimem, 25% horse serum, 25% Hank's balanced salt solution (all GIBCO)) supplemented with D-glucose to a final concentration of 25 mM.
At day 3, the medium was replaced by defined serum-free medium (Neurobasal medium with B27 supplement from Life Technologies). The cultures were grown in an incubator with 5% CO2 at 36° C. for 21 days after which the sections were immunostained for TH as described in Example 4. […] Untreated cultures served as controls. The medium was changed twice a week and antimitotics and antibiotics were not used at any stage.
The area of the culture slice was delineated and a counting frame was randomly placed to mark the first area to be sampled.
Experiment [3] deals with PC12 cells. The following applies: two days. How it is done: In this experiment the ability of the compounds to potentiate NGF-induced neurite outgrowth in PC12 cells was assessed.
PC12 cells were seeded in tissue culture plates coated with collagen at a cell density of 15,000/cm^2 in DMEM with 7.5% FCS and 7.5% DHS. Next day the medium was changed to medium supplemented with the NS compound in the absence or presence of NGF.
Two days after the medium change, cells were fixed in 4% paraformaldehyde and stained for neurofilament. Cells were fixed by in tissue culture plates by incubation in 4% paraformaldehyde in PBS followed permeabilization in 0.05% Triton-X100 in the presence of 10% DHS to block non-specific binding sites. After washing, the plates were incubated with anti-neurofilament (NF) antibody (clone RT97) from Boehringer diluted 1:200 in 0.05% Triton-X100/10% DHS followed by incubation with biotinylated anti-mouse immunoglobulin RPN1001 (Amersham) diluted 1:200. NF-immunoreactive cells were stained using the ABC-complex/HRP kit K0355 (DAKO) and 3,3-diaminobenzidine tetrahydrochloride (DAB) as substrate.
Estimation of total cell number per well, as well as the total neurite length was done using unbiasedly 2D stereology (CAST-grid system connected to a Olympus BH-2 microscope).

For experiment [4], the system named is PC12 cells. In words: Survival of differentiated PC12 cells in serum-free medium (MTS). The class given is cell-based. The settings on record: for Survival Effects on Differentiated PC12 Cells in Serum-free Medium (% of 3 nM NGF): 4 days incubation, MTS; for Rescue of PC12 cells in serum-free medium: viability as reduction of MTS. How it is done: In this experiment the protective effect of the compounds on the survival of the pheochromocytoma cell line PC12 deprived of other survival factors were assessed following differentiation of the cells to a neuron-like phenotype.
Cells were seeded in collagen coated 96 well plates at a cell density of 8,000/cm^2 in DMEM with 7.5% Foetal Calf Serum (FCS), 7.5% Donor Horse Serum (DHS) and 2 nM NGF and cultured for 6 days. The medium was then changed to DMEM without serum supplemented with the compound in the indicated concentrations. As a positive control, parallel wells receiving serum-free DMEM without addition of vehicle […] 3 nM NGF were included.
After 4 days of incubation, cell viability was evaluated by using MTS (3-(4,5-dimethylthiazol-2-yl)-5-(3-carboxymethoxyphenyl)-2-(4-sulfonyl)2H-tetrazolium) which is reduced by metabolically active cells. Data are expressed as % of the response seen with 3 nM NGF corrected for residual MTS reduction activity in the parallel serum-free cultures (“% of NGF control”).

The subject of experiment [5] is CREB. The settings on record: after 5 minutes stimulation (not shown). On the procedure:
The cyclic AMP-responsive element binding protein (CREB) is a post-translationally activated transcription factor that has been implicated in numerous neuronal functions including cell survival, differentiation and neurotransmission.
Approximately 7.5×10^5 PC12 cells per well were plated in collagen coated 6-well plates in DMEM with 0.75% FCS and 0.75% DHS and incubated for 48 hours. Cells were then further starved for 2 hours in serum free DMEM before stimulation with the indicated compounds for 5, 10 or 20 minutes. Cells were harvested in 1× heated sample buffer (2% SDS, 400 mM Tris, pH 8.0, 10 mM DTT and 0.25 mM Na3VO4) and the cell lysates were electrophoresed on 8-18% gradient SDS gels, which were electroblotted to PVDF membranes.
Phosphorylated CREB were immunodetected by using rabbit anti-Phospho-CREB (UpState Biotechnology #06-519) followed by HRP-linked anti-rabbit antibody (Amersham Life Science #NA 934). Bands were detected by chemilumininescence using the ECL system (Amersham).

Experiment [6] has as its system the ERKs (ERK1 and ERK2). The following applies: 1-3 μM; PC12 cells; 24 hours with NGF. How it is done: (§1) Approximately 200,000 PC12 cells were plated in a 24 well plate in DMEM with 7.5% FCS and 7.5% DHS and incubated ON.
(§2) Total cell lysate was electrophoresed on 8-18% gradient SDS gels which were electroblotted to PVDF membranes. Phosphorylated ERK1 and ERK2 were immunodetected by using mouse anti-Phospho-p44/p42 MAP kinase E10 mAb (New England Biolabs #9106) and HRP-linked anti-mouse antibody. Phosphorylated Akt kinase was immunodetected by using rabbit phospho-specific Akt (Ser473) antibody (New England Biolabs # 9271) and HRP-linked anti-rabbit antibody. Bands were detected by chemilumininescence using the ECL system (Amersham).

The test system of experiment [7] is Akt kinase. The settings on record: 1-3 μM; PC12 cells; 24 hours with NGF. How it is done:
as §1, §2

In experiment [8] the test system is transient global ischaemia in gerbils (hippocampal CA1-layer damage). The settings on record: gerbil; 4 minutes ischaemia; 2×30 mg/kg ip. after the insult; four days later.
Protocol: Gerbils were anaesthetised with halothane, right and left carotid arteries located and occluded for 4 minutes. Animals were kept at normal body temperature before and after the operation using heating lamps. During the operation, the gerbils were placed on heating pads, the body temperature was controlled and maintained at 37±0.5° C.
Four days later, the animals were sacrificed, brains removed and cooled to −70° C. Thereafter, the brains were sectioned in 20 μm thick sections of which 5-7 with hippocampal tissue were selected and stained with hematoxylin-eosin.
The degree of hippocampal damage was categorised into one of four groups:
Group 1: no damage in the CA1-layer;
Group 2: the CA1-layer partly damaged;
Group 3: the CA1-layer completely damaged; and
Group 4: damage in more then just the CA1-layer. The total ischaemia score was obtained as the sum of scores in the right- and left hemisphere. Kendall's tau test was used for statistic evaluation.

Consider `CN1CCc2c(-c3ccc(Cl)cc3)cc3c(c2C1)NC(=O)C3=NO.Cl` [Compound G-1, 5-(4-Chlorophenyl)-8-methyl-6,7,8,9-tetrahydro-1-H-pyrrolo[3.2-h]isoquinoline-2,3-dione-3-oxime hydrochloric acid salt], for which the “More TH-immunoreactive cells compared to untreated control cultures” value in experiment [1] is given as 81%; in experiment [2] it was 37%. Further, the “Effect on neurite outgrowth in PC12 cells, compound alone” value in experiment [3] (1 and 3 μM, without NGF) was “some effect on neurite outgrowth”. For the same compound, the “Potentiation of NGF-induced neurite outgrowth in PC12 cells” value in experiment [3] (with NGF) was “significantly potentiate NGF-induced neurite outgrowth”. The “Survival Effects on Differentiated PC12 Cells in Serum-free Medium (% of 3 nM NGF)” value in experiment [4] (0.1 μM) is recorded as 11.09 ± 1.42 % of 3 nM NGF; in experiment [4] (0.2 μM) it was 12.78 ± 2.01 % of 3 nM NGF; in experiment [4] (0.5 μM), 28.62 ± 1.77 % of 3 nM NGF; in experiment [4] (0.75 μM), 32.05 ± 3.36 % of 3 nM NGF; in experiment [4] (1 μM) it was 52.60 ± 3.40 % of 3 nM NGF; in experiment [4] (2 μM) it was 60.47 ± 2.26 % of 3 nM NGF. The “Survival Effects on Differentiated PC12 Cells in Serum-free Medium (% of 3 nM NGF)” value in experiment [4] (5 μM) is reported as 74.85 ± 4.67 % of 3 nM NGF; in experiment [4] (7.5 μM), 62.08 ± 3.70 % of 3 nM NGF; in experiment [4] (10 μM), 63.80 ± 4.09 % of 3 nM NGF. Also, in experiment [4], the “Rescue of PC12 cells in serum-free medium” value was “dose-dependent rescue”. The “Combined effect of NGF and compound on CREB phosphorylation” value in experiment [5] is “additive effect”. Besides, the “Effect on NGF-induced phosphorylation of the ERKs” value in experiment [6] is listed as “potentiate NGF-induced phosphorylation”. Moreover, the “Effect on NGF-induced phosphorylation of the Akt kinase” value in experiment [7] is recorded as “potentiate NGF-induced phosphorylation”.

Regarding `Cl.O=C1Nc2c(cc(-c3ccc(Cl)cc3)c3c2CCCC3)C1=NO` [Compound G-2, 5-(4-Chlorophenyl)-6,7,8,9-tetrahydro-1-H-pyrrolo[3.2-h]naphthalene-2,3-dione-3-oxime hydrochloric acid salt], in experiment [8], the “Animals with no or only partially damage in the CA1 neurons of the hippocampus” value is listed as “≈ 50%”. Also, the “Survival Effects on Differentiated PC12 Cells in Serum-free Medium (% of 3 nM NGF)” value is listed as 7.77 ± 1.86 % of 3 nM NGF in experiment [4] (0.1 μM); 16.58 ± 4.36 % of 3 nM NGF in experiment [4] (0.2 μM); 17.30 ± 4.43 % of 3 nM NGF in experiment [4] (0.5 μM); 23.54 ± 1.60 % of 3 nM NGF in experiment [4] (0.75 μM); 27.63 ± 6.91 % of 3 nM NGF in experiment [4] (1 μM); 33.31 ± 5.22 % of 3 nM NGF in experiment [4] (2 μM). For the same compound, the “Survival Effects on Differentiated PC12 Cells in Serum-free Medium (% of 3 nM NGF)” value in experiment [4] (5 μM) is given as 50.25 ± 4.28 % of 3 nM NGF; in experiment [4] (7.5 μM) it was 54.83 ± 4.37 % of 3 nM NGF; in experiment [4] (10 μM), 74.66 ± 5.70 % of 3 nM NGF. The “Rescue of PC12 cells in serum-free medium” value in experiment [4] is “dose-dependent rescue”.

For the compound `O=C1Nc2ccc(-c3ccc(Cl)cc3)cc2C1=NO` [Compound G-3, 5-(4-Chlorophenyl)isatin-3-oxime], the “Survival Effects on Differentiated PC12 Cells in Serum-free Medium (% of 3 nM NGF)” value in experiment [4] (0.1 μM) is given as −0.34 ± 1.59 % of 3 nM NGF; in experiment [4] (0.2 μM) it was 23.83 ± 3.61 % of 3 nM NGF; in experiment [4] (0.5 μM) it was 28.20 ± 2.55 % of 3 nM NGF; in experiment [4] (0.75 μM) it was 30.66 ± 3.83 % of 3 nM NGF; in experiment [4] (1 μM), 36.11 ± 3.02 % of 3 nM NGF; in experiment [4] (2 μM), 41.53 ± 3.00 % of 3 nM NGF. Besides, the “Survival Effects on Differentiated PC12 Cells in Serum-free Medium (% of 3 nM NGF)” value is listed as 49.63 ± 4.67 % of 3 nM NGF in experiment [4] (5 μM), 67.60 ± 5.54 % of 3 nM NGF in experiment [4] (7.5 μM) and 72.23 ± 4.34 % of 3 nM NGF in experiment [4] (10 μM). Moreover, the “Rescue of PC12 cells in serum-free medium” value in experiment [4] is “dose-dependent rescue”.
